Assay results taken from publication PMC5632533, “Mechanisms of action and in vivo antibacterial efficacy assessment of five novel hybrid peptides derived from Indolicidin and Ranalexin against Streptococcus pneumoniae” (PeerJ, 2017).

Key:
Resistant S. pneumoniae = settings: incubation with resistant S. pneumoniae; ref Jindal et al., 2015; cited from earlier work
[1] = tested on: S. pneumoniae (highly virulent strain); assay: In vivo antipneumococcal activity, pneumococcal bacteremia (lethal systemic infection) model; set-up: species or system mice
Method: Two pneumococcal infection models developed previously in our lab ([Le et al., 2015]) were used to assess the therapeutic efficacy of peptides in vivo. The systemic infection model was used to mimic pneumococcal bacteremia in humans and the pneumococcal pneumonia model was used to mimic pneumococcal pneumonia in humans. A highly virulent strain was used in both the models. The bacterial isolate was grown overnight on Columbia agar with 5% sheep blood at 37 °C under 5% CO2. The bacterial suspension was adjusted to OD625 0.08-0.1 (1 ∼ 2 × 10^8 CFU/ml). Mice tested for lethal systemic infection were inoculated with 1.5 × 10^2 CFU/mouse (100 μl) via IP route. Mice used to assess the Pneumococcal pneumonia model were inoculated with pneumococcal cells of 5 × 10^3 CFU/mouse (50 μl) via the intrathoracic route.
After 1 hr of inoculation, Mice receiving treatment were randomized and divided into six groups. RN7-IN10 and RN7-IN8 were tested at three different doses for each (5 mg/kg, 10 mg/kg and 20 mg/kg) using a group of 10 mice. Graded doses of ceftriaxone (5 mg/kg, 10 mg/kg, […], 40 mg/kg and 80 mg/kg) were also tested to assess the in vivo antibacterial activity of this antibiotic. Only mice injected with PBS were served as uninfected control. Mice injected with bacterial inoculum were used as untreated control group and given sterile distilled water only. Survival of mice was documented for seven days or until death. After seven days, the experiment was ended, the blood and homogenates of the five major organs (kidney, brain, spleen, liver and lung) of the surviving mice were plated on Columbia agar with 5% sheep blood, to detect the presence of pneumococcal cells. […]

[2] = tested on: S. pneumoniae genomic DNA; assay: Gel retardation assay (DNA retardation); assay type: binding, Streptococcus pneumoniae; settings: 250 ng genomic DNA; 0.24–500 µg/ml tested; 10 min, room temperature; 1% agarose gel
Method: This assay was carried out as described previously, with minor modifications ([Li et al., 2013]). S. pneumoniae were grown overnight on Columbia agar with 5% sheep blood. A few bacterial colonies were transferred into a 1.5 ml eppendorf tube containing phosphate buffered saline (PBS). The bacterial cells were centrifuged, PBS was discarded and 50 µl of TE buffer containing 0.08 g/ml of lysozyme and 150 U/ml of mutanolysin was added to the cells. Genomic DNA was isolated from pneumococcal cells using DNeasy Blood & Tissue Kit (Qiagen, Hilden, Germany), following the manufacturer’s giudlines. The optical density ratio of 260 nm and 280 nm (OD260∕OD280 = 1.83) was used to measure the purity of the DNA. Genomic DNA (250 ng) was incubated with hybrid peptides at various concentrations (0.24–500 µg/ml) in 12 μl at room temperature for 10 min. 2 μl of loading buffer were added to the mixture and the migration of DNA through 1% agarose gel was evaluated by electrophoresis in 1 × Tris borate–EDTA buffer (45 mM Tris–borate and 1 mM EDTA at pH 8.0) and spotted by the fluorescence of gel stain (Gel Red, BIOTIUM, Fremont, CA, USA). The natural peptide indolicidin was used as positive controls, ceftriaxone and erythromycin were used as negative controls.

S. pneumoniae [3] = assay: ATP efflux assay; assay type: cell-based, Streptococcus pneumoniae; settings: peptides 125 µg/ml (RN7-IN7 500 µg/ml); for ATP released, Average 1hr / ATP released, Average 2hr / ATP released, Average 3hr: raw data sheet, mean of 3
Method: The amount of ATP released from pneumococcal cells incubated with hybrid peptides was measured as described previously, with a slight modification ([Tanida et al., 2006]). The ATP determination kit (Molecular Probes, Eugene, OR, USA) was used to measure the amount of ATP released based on the luciferin/luciferase method according to the manufacturer’s instructions. Briefly, S. pneumoniae were grown overnight on Columbia agar with 5% sheep blood. Bacterial suspensions were spectrophotometrically adjusted to (1 × 10^7 CFU/ml) and incubated with hybrid peptides RN7-IN10, RN7-IN9, RN7-IN8 and RN7-IN6 at 125 µg/ml and with RN7-IN7 at 500 µg/ml. The amount of ATP released form the pneumococcal cells were measured at three time points 1, 2 and 3 h. The samples were then centrifuged at 5,000 rpm for 5 min, and ATP efflux was subsequently estimated using an ATP standard curve. Values were obtained from three independent experiments. Ceftriaxone and erythromycin were used as positive controls.

Streptococcus pneumoniae = settings: 30 pneumococcal clinical isolates; earlier study; ref Jindal et al., 2015; cited from earlier work
Source text: Table 1 Sequences and physicochemical properties of the template and hybrid AMPs. | column: MIC^a || One of the advantageous alternatives to today’s antibiotics is antimicrobial peptides (AMPs) ([Deslouches et al., 2013]; [Sánchez-Vásquez et al., 2013]). AMPs are synthesized by almost all living beings as the first line of defense in their immune system against microbial infection. Many aspects favor AMPs over traditional antibiotics: a broad range of antimicrobial activity against pathogenic micro-organisms (including viruses, parasites, bacteria, and fungi), microbial pathogens are less efficient in developing resistance against AMPs, as killing take place in a short contact time and AMPs c ...

S. pneumoniae [4] = assay: Transmission electron microscopy (TEM) of treated cells; assay type: cell-based, Streptococcus pneumoniae; settings: 10^8 CFU/ml in CAMHB; 8 × MIC (125 µg/ml; RN7-IN7 500 µg/ml); 1 h, 37 °C, 5% CO2
Method: Bacteria were prepared for TEM according to the guidelines of the Electron Microscopy Unit at the Faculty of Medicine, University of Malaya. S. pneumoniae cultures were grown overnight on Columbia agar with 5% sheep blood and suspended in cationally adjusted Mueller-Hinton broth (CAMHB) at 10^8 CFU/ml. […] Cells in cationally adjusted Mueller-Hinton broth (CAMHB) were used as an untreated control. After an hour of incubation, the pneumococcal cells were centrifuged to discard the medium, washed thrice with 10 mM phosphate buffer saline at pH 7.3 and fixed overnight in 4% (v/v) glutaraldehyde. All samples were washed twice with cacodylate buffer, incubated for 2 h in osmium tetroxide buffer (OsO4 1: 1 cacodylate), washed twice with cacodylate buffer and then incubated overnight in cacodylate buffer. All the samples were washed with distilled water twice and incubated for 10 min with uranyl acetate. After this, all samples were then washed twice with distilled water and dehydrated in an ascending series of ethanol: 35% (10 min), 50% (10 min), 70% (10 min), 95% (15 min), and thrice in 100% ethanol (15 min). After dehydration, samples were incubated with propylene oxide (15 min), propylene oxide 1:1 Epon (1 h), propylene oxide 1:3 Epon (2 h) and finally incubated overnight with Epon. All the samples were embedded in agar 100 resin at 37 °C for 5 hr and maintained at 60 °C until viewing. Reichert Ultramicrotome copper grids 3.05 mm (300 square mesh) (Agar Scientific, Essex, United Kingdom) were used to prepare Ultrathin sections. Ethanol-based uranyl acetate and lead citrate were used to stain the samples for 5 min. Transmission electron microscope (Leo Libra 120) was used to capture the images.

[5] = 1 × 10^7 CFU/ml, luciferin/luciferase, ATP standard curve, mean ± SD, three independent experiments

Compound | concentration inhibiting migration of genomic DNA through the agarose gel [2] [µg/mL] | ATP released from pneumococcal cells after 1 h (S. pneumoniae [3]; [5]) [pM] | ATP released, Average 1hr (S. pneumoniae [3]) [pM] | ATP released, Average 2hr (S. pneumoniae [3]) [pM] | ATP released, Average 3hr (S. pneumoniae [3]) [pM] | MIC, minimum inhibitory concentration (Streptococcus pneumoniae) [mg/L] | other results
CO/N=C(\C(=O)N[C@@H]1C(=O)N2C(C(=O)O)=C(CSc3nc(=O)c(=O)[nH]n3C)CS[C@H]12)c1csc(N)n1 [ceftriaxone, reference compound] | > 500 | 5.24 ± 1.43 | 5.248 | 3.522 | 3.119 |  | time to bactericidal activity / elimination of S. pneumoniae (Resistant S. pneumoniae): > 240 min; survival of infected mice up to seven days post-infection ([1]; 1.5 × 10^2 CFU/mouse IP, treatment IP 5 mg/kg (peptides at 1 h, 12 h, 24 h post-infection), 10 mice): 10%; survival of infected mice up to seven days post-infection ([1]; 1.5 × 10^2 CFU/mouse IP, treatment IP 10 mg/kg (peptides at 1 h, 12 h, 24 h post-infection), 10 mice): 30%; survival of infected mice up to seven days post-infection ([1]; 1.5 × 10^2 CFU/mouse IP, treatment IP 20 mg/kg (peptides at 1 h, 12 h, 24 h post-infection), 10 mice): 40%; survival of infected mice up to seven days post-infection ([1]; treatment IP 40 mg/kg): 70%; survival of infected mice up to seven days post-infection ([1]; treatment IP 80 mg/kg): 90%
CC[C@H]1OC(=O)[C@H](C)[C@@H](O[C@H]2C[C@@](C)(OC)[C@@H](O)[C@H](C)O2)[C@H](C)[C@@H](O[C@@H]2O[C@H](C)C[C@H](N(C)C)[C@H]2O)[C@](C)(O)C[C@@H](C)C(=O)[C@H](C)[C@@H](O)[C@]1(C)O [erythromycin, reference compound] | > 500 | 0.49 ± 0.004 | 0.4933 | 0.4736 | 0.3124 |  | 
FLGGLIKIVPAMICAVTKKC-OH [Ranalexin, natural template antimicrobial peptide] |  |  |  |  |  | 62.5 | 
FLGGLIKPWWPWRR-NH2 [RN7-IN7, hybrid peptide of ranalexin (residues 1-7) and indolicidin (residues 7-13)] |  | 22.35 ± 0.9 |  |  |  | 62.5 | TEM: detachment of cell wall from cell membrane (S. pneumoniae [4]): partial disconnection of the cell wall from the cell membrane; ATP released from pneumococcal cells after 3 h (S. pneumoniae [3]; [5]): 13.02 ± 2.26 pM
ILPWKWPWWPWRR-NH2 [Indolicidin, natural template (parent) antimicrobial peptide] | 62.5 |  |  |  |  | 15.62 to 31.25 | 
